Patent US20260258009A1, “3-[(BENZO[D][1,3]DIOXOLANE-4-YL)OXY]PROPYLAMINE HYDROCHLORIDE, OPTICAL ISOMER AND CRYSTAL THEREOF, AND PREPARATION METHOD THEREFOR” (priority 2022, published 2026)
Like-named read-outs stand apart in the source and are kept apart here.

Columns and labels:
in vivo [1] = details: both, beagle, dog; for half-life: t1/2
Protocol: Each group had six beagle dogs, half male and half female.
Preparation of solutions: • 1) Intravenous injection administration: 0.9% Normal saline was used as a vehicle. • 2) Oral administration: According to the dose of 10 mg/kg (based on base), a corresponding mass of the drug was weighed according to the actual weight of the animal, and then filled into a capsule to be administered to the animal.

ICR mice [2] = experiment: Mouse forced swimming test; assay type: in vivo; details: intragastric; for Immobility time: mice, 1 h after administration, mean±SD, n=12; for minimum effective dose (MED) / ED50: mouse forced swimming; for ED50: po, read-out: ED50 (median effective dose, FST-ED50)
Protocol: SPF grade ICR mice were taken. The animals were grouped by weight, 12 animals per group, and the animals were allowed to acclimate for at least 3 days before behavioural test.
The behavioural test was started 1 h after intragastric administration. The mice were placed in a transparent glass cylinder with water (water depth: 15 cm, water temperature: 23-25° C.) and video recorded for 6 min (the background was an LED light panel). At the end of the time, the mice were removed from the water and the next batch of mice was subjected to the behavioural test. Water was changed after every 3 batches of tests. After the test, the video of the behavioural test was derived and the cumulative immobility time of the mice 4 min after the 6 min forced swimming period was analyzed using the Forced Swim Scant 2.0 software.
The test results are expressed as mean±SD. Comparisons between each group and the vehicle group were conducted using the t-test. The differences were considered statistically significant when. P<0.05.

[3] = Solubility experiment (HPLC, external standard method); assay type: physicochemical; details: 20 °C, water, thermodynamic from solid
Protocol: The concentrated solution was placed in a 20° C. water bath thermostatic oscillator for overnight oscillation (supersaturation) and filtered. The filtrate was taken, 1 mL of which was precisely measured and placed in a 100 mL volumetric flask. A diluent (water) was added, the mixture was diluted to volume and mixed well, 1 mL of which was precisely measured and placed in a 10 mL volumetric flask. A diluent was added, the mixture was diluted to volume and mixed well as a test sample solution.
Control substance solution: A proper amount of 5 samples were respectively taken, precisely measured, dissolved in a proper amount of a diluent by ultrasonication, and diluted to give a solution containing about 0.1 mg of the sample per 1 mL. Two duplicate samples were prepared for each batch.
• (1) Preparation of buffer: About 2.6428 g ammonium sulfate was weighed and dissolved in 1000 mL of water. 2 mL of triethylamine was added, and the pH value was adjusted to 4.0 with dilute sulfuric acid. • (2) Preparation of mobile phase: Methanol-0.02 mol/L ammonium sulfate solution (2 mL triethylamine was added per 1000 mL, and the pH value was adjusted to 4.0 with dilute sulfuric acid) (45:55). 1000 mL was prepared, mixed well, filtered, and used after ultrasonic treatment.
Detection wavelength: 230 nm; flow rate: 1.0 mL/min; column temperature: 35° C.; sample injection volume: 20 μL; chromatographic column: Agilent Eclipse XDB-C18 chromatographic column (4.6×150 mm, 5 μm); mobile phase: methanol-0.02 mol/L ammonium sulfate solution (2 mL triethylamine was added per 1000 mL, and the pH value was adjusted to 4.0 with dilute sulfuric acid) (45:55).
20 μL of each solution was precisely measured, and injected separately into a liquid chromatograph. The chromatograms were recorded, and the solubility of the compounds was determined according to an external standard method.

ICR mice [4] = experiment: in vivo; details: mouse acute toxicity LD50 / forced swimming ED50
Protocol: (§1) The dose administered at the time of the formal test was determined based on the dose of the compound in the preliminary experiment that caused 100% and 0% death in mice. In the formal test, ICR mice were taken and randomly grouped, with 10 mice in each group, half male and half female, which were subjected to intragastric administration at 10 mL/kg.
(§2) From the results of the mouse acute toxicity test, the compound of formula (I) is least toxic. The therapeutic index (TI=LD50/ED50) was calculated based on the results of the mouse acute toxicity and efficacy test.

in vivo [5] = details: both sexes, ICR, mouse, in vivo, po
Protocol: as §1, §2

[6] = 95% confidence interval of LD50
[7] = Mouse acute toxicity LD50 (median lethal dose)

| SMILES | Immobility time (ICR mice [2]; 0.2 mg/kg) | Immobility time (ICR mice [2]; 0.4 mg/kg) | Immobility time (ICR mice [2]; 0.8 mg/kg) | Immobility time (ICR mice [2]; 1.6 mg/kg) | Immobility time (ICR mice [2]; 15 mg/kg) | Immobility time (ICR mice [2]; 30 mg/kg) | minimum effective dose (MED) (ICR mice [2]) | ED50 (ICR mice [2]) | TI = LD50/ED50 (therapeutic index) (ICR mice [4]) | LD50 at 7 days (in vivo [5]; [6]) | LD50 at 7 days (in vivo [5]; [7]) | also measured |
| --- | --- | --- | --- | --- | --- | --- | --- | --- | --- | --- | --- | --- |
| CNCC[C@@H](Oc1cccc2c1OCO2)c1ccccc1.Cl [Compound of formula I, (R)—N-methyl-3-phenyl-3-[(benzo[d][1,3]dioxolan-4-yl)oxy]propylamine hydrochloride] | 178.6 ± 17.0 s | 105.0 ± 72.1 s | 106.0 ± 59.7 s | 55.4 ± 41.1 s | 13.0 ± 23.3 s | 7.6 ± 4.4 s | 0.4 mg/kg | 0.96 mg/kg | 120.4 | 106 to 125 mg/kg | 116 mg/kg | AUC(0-t) (in vivo [1]; iv, 0.3 mg/kg): 117 ng·h/mL; AUC(0-inf) (in vivo [1]; iv, 0.3 mg/kg): 119 ng·h/mL; Cmax (in vivo [1]; iv, 0.3 mg/kg): 80.4 ng/mL; Tmax (in vivo [1]; iv, 0.3 mg/kg): 0.08 h; half-life (in vivo [1]; iv, 0.3 mg/kg): 2.15 h; AUC(0-t) (in vivo [1]; po, 1 mg/kg): 100 ng·h/mL; AUC(0-inf) (in vivo [1]; po, 1 mg/kg): 102 ng·h/mL; Cmax (in vivo [1]; po, 1 mg/kg): 28.9 ng/mL; Tmax (in vivo [1]; po, 1 mg/kg): 1.23 h; half-life (in vivo [1]; po, 1 mg/kg): 2.36 h; bioavailability (in vivo [1]; po, Bioavailability): 25.7%; solubility ([3]; Solubility): 33.2 mg/mL |
| CNCC[C@H](Oc1cccc2c1OCO2)c1ccccc1.Cl [(S)—N-methyl-3-phenyl-3-[(benzo[d][1,3]dioxolan-4-yl)oxy]propylamine hydrochloride] | 180.4 ± 29.4 s | 167.5 ± 45.7 s | 147.0 ± 65.4 s | 94.1 ± 35.4 s | 8.9 ± 8.7 s | 6.2 ± 9.7 s | 1.6 mg/kg | 1.74 mg/kg | 38.4 | 13.1 to 91.3 mg/kg | 66.8 mg/kg | – |
| CNCCC(Oc1cccc2c1OCO2)c1ccccc1.Cl (stereo not shown) [N-methyl-3-phenyl-3-[(benzo[d][1,3]dioxolan-4-yl)oxy]propylamine hydrochloride] | 165.3 ± 37.2 s | 125.6 ± 53.6 s | 86.9 ± 53.4 s | 83.2 ± 52.9 s | 64.3 ± 73.7 s | 3.7 ± 5.9 s | 0.4 mg/kg | 1.81 mg/kg | 62.0 | – | – | solubility ([3]; Water, 20° C., overnight oscillation, read-out: Solubility): 1500 mg/mL; LD50 at 7 days (in vivo [5]; mice, single intragastric administration, observed within 7 days, read-out: Mouse acute toxicity LD50 (median lethal dose)): 112 mg/kg; LD50 at 7 days (in vivo [5]; mice, single intragastric administration, read-out: 95% confidence interval of LD50): 102 to 122 mg/kg |
